Test results as given in PMC6835155, “Lessons from LIMK1 enzymology and their impact on inhibitor design” (Biochemical Journal, 2019).

How the values were obtained:
LIMK1KD = molecular target: T1, LIMK1KD (Homo sapiens, UniProt P53667); assay: Differential (dynamic) scanning fluorimetry (DSF) assay, LIMK1KD; assay type: binding; settings: 2 µM LIMK1KD, compound 10 µM, single shot; for ΔTm at 10 µM: read-out: TM Shift LIMK1 (K)
T1 construct: His6 (N, cleaved yes); made in house; host or cells: baculovirus; Sf9 for virus, TriEx insect cells for expression
T1 sequence (P53667 330-637): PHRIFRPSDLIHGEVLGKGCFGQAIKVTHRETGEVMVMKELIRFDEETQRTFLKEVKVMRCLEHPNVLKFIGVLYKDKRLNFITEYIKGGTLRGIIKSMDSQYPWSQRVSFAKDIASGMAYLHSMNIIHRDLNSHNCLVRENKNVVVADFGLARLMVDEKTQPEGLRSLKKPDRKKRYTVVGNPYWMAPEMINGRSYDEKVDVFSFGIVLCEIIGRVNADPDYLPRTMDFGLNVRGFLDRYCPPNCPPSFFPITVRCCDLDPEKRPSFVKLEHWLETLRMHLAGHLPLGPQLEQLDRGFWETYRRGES

LIMK2KD = molecular target: T2, LIMK2KD (Homo sapiens, UniProt P53671); assay: Differential (dynamic) scanning fluorimetry (DSF) assay, LIMK2KD; assay type: binding; settings: LIMK2KD, compound 10 µM, single shot; for ΔTm at 10 µM: read-out: TM Shift LIMK2 (K)
T2 construct: The cDNA coding for LIMK2 residues 330 to 632 was PCR amplified; His6 (N, cleaved yes); made in house; host or cells: baculovirus; Sf9 for virus, TriEx insect cells for expression
T2 sequence (P53671 330-632): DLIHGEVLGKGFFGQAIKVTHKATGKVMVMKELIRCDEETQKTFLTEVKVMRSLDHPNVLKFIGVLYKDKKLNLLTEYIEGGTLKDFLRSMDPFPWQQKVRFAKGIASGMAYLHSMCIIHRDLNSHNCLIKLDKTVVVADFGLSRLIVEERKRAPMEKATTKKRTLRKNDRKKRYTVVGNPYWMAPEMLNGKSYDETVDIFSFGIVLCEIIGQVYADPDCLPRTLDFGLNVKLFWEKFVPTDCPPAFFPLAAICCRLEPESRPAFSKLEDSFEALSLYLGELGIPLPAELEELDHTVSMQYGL

| TM Shift LIMK1 (K) (LIMK1KD) | TM Shift LIMK2 (K) (LIMK2KD) | ΔTm at 10 µM (LIMK1KD) | ΔTm at 10 µM (LIMK2KD) | SMILES | further results |
| --- | --- | --- | --- | --- | --- |
| 0.7 K | 2.3 K | – | – | O=C1NC(=O)C(=Cc2ccc(-c3ccc(F)cc3)o2)S1 (stereo in doubt) [CAY10505] | – |
| – | – | 0.4 °C | 0.5 °C | Cn1cnc(N)c2ncnc1-2 [3-Methyladenine] | – |
| 0.3 K | 1.7 K | – | – | CCc1ccc(/C=C2/SC(=S)NC2=O)cc1 [10058-F4] | – |
| 0.0 K | 1.0 K | – | – | Cc1nc(NC(=O)N2CCC[C@H]2C(N)=O)sc1-c1csc(C(C)(C)C)n1 [A66] | – |
| 0.8 K | 0.2 K | – | – | Cc1[nH]nc2ccc(-c3cncc(OC[C@@H](N)Cc4ccccc4)c3)cc12 [A-674563] | – |
| 0.9 K | 2.4 K | – | – | N#Cc1c(O)c2c(-c3ccc(-c4ccccc4O)cc3)csc2[nH]c1=O [A-769662] | – |
| – | – | 4.7 °C | 4.5 °C | CCN1CCN(Cc2ccc(-c3cc4c(N[C@H](C)c5ccccc5)ncnc4[nH]3)cc2)CC1 [AEE788 (NVP-AEE788)] | – |
| 0.7 K | 0.9 K | – | – | N#C/C(=C\c1ccc(O)c(O)c1)C(=O)NCc1ccccc1 [AG-490 (Tyrphostin B42), Tyrphostin B42] | – |
| – | – | 1.4 °C | -0.2 °C | COc1cc2ncnc(Nc3cccc(Cl)c3)c2cc1OC [AG-1478 (Tyrphostin AG-1478), Tyrphostin AG-1478] | – |
| 1.3 K | -0.8 K | – | – | COc1ccc2c(Oc3ccc(NC(=O)c4c(C)n(CC(C)(C)O)n(-c5ccccc5)c4=O)nc3)ccnc2c1 [AMG-458] | – |
| – | – | 0.5 °C | -2.1 °C | Cc1csc(-c2nnc(Nc3ccc(Oc4ncccc4-c4ccnc(N)n4)cc3)c3ccccc23)c1 [AMG-900] | – |
| – | – | 3.4 °C | 0.1 °C | COc1cc(N2CCC(N3CCN(C)CC3)CC2)ccc1Nc1ncc(Cl)c(Nc2ccccc2P(C)(C)=O)n1 [AP26113] | – |
| 1.4 K | 1.0 K | – | – | COc1ccc(CNC(=O)Nc2ncc([N+](=O)[O-])s2)cc1 [AR-A014418] | – |
| -0.1 K | 3.0 K | – | – | O=C1NC(=O)/C(=C/c2ccc(-c3ccc(F)cc3O)o2)S1 [AS-252424] | – |
| 0.3 K | 2.2 K | – | – | O=C1NC(=O)/C(=C/c2ccc3c(c2)OC(F)(F)O3)S1 [AS-604850] | – |
| – | – | 3.7 °C | 1.4 °C | COc1cc(N2CCC(N3CCN(C)CC3)CC2)ccc1Nc1ncnc(Nc2ccccc2S(=O)(=O)C(C)C)n1 [ASP3026] | – |
| – | – | 0.4 °C | 0.1 °C | C=CC(=O)Nc1ccc2ncnc(Nc3ccc(OCc4cccc(F)c4)c(Cl)c3)c2c1 [AST-1306] | – |
| – | – | 1.2 °C | 1.3 °C | O=C(NC1CCNCC1)c1[nH]ncc1NC(=O)c1c(Cl)cccc1Cl [AT7519] | – |
| 0.9 K | 1.4 K | – | – | Clc1ccc(C2(c3ccc(-c4cn[nH]c4)cc3)CCNCC2)cc1 [AT7867] | – |
| – | – | 9 °C | 4 °C | O=C(Nc1c[nH]nc1-c1nc2ccc(CN3CCOCC3)cc2[nH]1)NC1CC1 [AT9283] | – |
| – | – | 3.8 °C | 3.1 °C | C=CC(=O)Nc1cccc(Nc2nc(Nc3ccc(OCCOC)cc3)ncc2F)c1 [AVL-292] | – |
| 0.8 K | -0.8 K | – | – | C[C@@H]1COCCN1c1cc(C2(S(C)(=O)=O)CC2)nc(-c2cccc3[nH]ccc23)n1 [AZ20] | – |
| – | – | 0.4 °C | 0 °C | COc1cc(OC2CCN(C)CC2)ccc1Nc1ncc2c(n1)n(C1CCCC1)c(=O)n2C [AZ3146] | – |
| 0.3 K | 1.2 K | – | – | Cc1ccc(NC(=O)c2cccc(C(C)(C)C#N)c2)cc1Nc1ccc2ncn(C)c(=O)c2c1 [AZ 628] | – |
| – | – | 6 °C | 0.1 °C | Cc1cc(Nc2nc(N[C@@H](C)c3ccc(F)cc3)c(C#N)cc2F)[nH]n1 [AZ 960] | – |
| – | – | 0.5 °C | 2.3 °C | N#Cc1ccc2[nH]c(O)c(-c3ccc(CN4CCOCC4)cn3)c2c1 [AZD1080] | – |

| TM Shift LIMK1 (K) (LIMK1KD) | TM Shift LIMK2 (K) (LIMK2KD) | ΔTm at 10 µM (LIMK1KD) | ΔTm at 10 µM (LIMK2KD) | SMILES | further results |
| --- | --- | --- | --- | --- | --- |
| – | – | 4.7 °C | 0.6 °C | Cc1cc(Nc2nc(N[C@@H](C)c3ncc(F)cn3)ncc2Cl)n[nH]1 [AZD1480] | – |
| – | – | 0.2 °C | -0.3 °C | CNC(=O)c1cccc(-c2ccc3c(N4CCOC[C@@H]4C)nc(N4CCOC[C@@H]4C)nc3n2)c1 [AZD2014] | – |
| 2.5 K | 3.1 K | – | – | COc1cc(N2CCC(N)CC2)ccc1Nc1ncc(Cl)c(-c2c[nH]c3ccccc23)n1 [AZD3463] | – |
| – | – | 4.4 °C | 1.7 °C | Cc1ncc(-c2ccnc(Nc3ccc(S(C)(=O)=O)cc3)n2)n1C(C)C [AZD5438] | – |
| – | – | 0.7 °C | 1.8 °C | Cc1cc([C@@H](C)Nc2ccccc2C(=O)O)c2nc(N3CCOCC3)cc(=O)n2c1 [AZD6482] | – |
| – | – | 0.9 °C | 0.8 °C | COc1ccc(-c2ccc3c(N4CCOC[C@@H]4C)nc(N4CCOC[C@@H]4C)nc3n2)cc1CO [AZD8055] | – |
| – | – | 0.3 °C | 0.2 °C | Cc1cc(C(=O)NOCCO)c(Nc2ccc(I)cc2F)n(C)c1=O [AZD8330] | – |
| – | – | 0.9 °C | 0.6 °C | CNC(=O)CN1CCC(Oc2cc3c(Nc4cccc(Cl)c4F)ncnc3cc2OC)CC1 [AZD8931 (Sapitinib), Sapitinib] | – |
| – | – | 0.7 °C | 2.1 °C | NC(=O)c1ncn([C@@H]2O[C@H](CO)[C@@H](O)[C@H]2O)c1N [Acadesine] | – |
| – | – | -1.6 °C | 1.1 °C | CCc1cc2c(cc1N1CCC(N3CCOCC3)CC1)C(C)(C)c1[nH]c3cc(C#N)ccc3c1C2=O [Alectinib (CH5424802), Alectinib] | – |
| – | – | -0.3 °C | 1.8 °C | COc1cc(Nc2ncc3c(n2)-c2ccc(Cl)cc2C(c2c(F)cccc2OC)=NC3)ccc1C(=O)O [Alisertib (MLN8237), Alisertib] | – |
| – | – | 1.9 °C | 0.5 °C | CN1CC[C@H](c2c(O)cc(O)c3c(=O)cc(-c4ccccc4Cl)oc23)[C@H](O)C1 [Alvocidib] | – |
| – | – | -0.3 °C | 2.3 °C | S=C(NCc1ccc2c(c1)OCO2)N1CCN(c2ncnc3c2oc2ccccc23)CC1 [Amuvatinib (MP-470), Amuvatinib] | – |
| – | – | 0.2 °C | 3.8 °C | N#CC1(c2ccc(NC(=O)c3cccnc3NCc3ccncc3)cc2)CCCC1 [Apatinib] | – |
| – | – | 1.6 °C | 0.6 °C | Cc1c(CN2CCN(C(=O)[C@H](C)O)CC2)sc2c(N3CCOCC3)nc(-c3cnc(N)nc3)nc12 [Apitolisib] | – |
| – | – | -0.9 °C | 1.7 °C | C[C@H]1[C@H](C)CC[C@]2(C(=O)O)CC[C@]3(C)C(=CC[C@@H]4[C@@]5(C)C[C@@H](O)[C@H](O)[C@@](C)(CO)[C@@H]5CC[C@]43C)[C@H]12 [Asiatic Acid] | – |
| – | – | 2 °C | -0.7 °C | CNC(=O)c1ccccc1Sc1ccc2c(/C=C/c3ccccn3)n[nH]c2c1 [Axitinib] | – |
| -0.8 K | 0.2 K | – | – | Cc1ccc(S(=O)(=O)/C=C/C#N)cc1 [BAY 11-7082] | – |
| – | – | -0.1 °C | -0.7 °C | COc1ccc(-c2ccc3ncc4c(c3c2)n(-c2ccc(N3CCNCC3)c(C(F)(F)F)c2)c(=O)n4C)cn1 [BGT226 (NVP-BGT226)] | – |
| 2.2 K | 3.9 K | – | – | CC(C)CCN1c2nc(Nc3cc(F)c(O)c(F)c3)ncc2N(C)C(=O)C1C (stereo not drawn) [BI-D1870] | – |
| 0.2 K | 2.2 K | – | – | O=C1Nc2cc(Br)ccc2/C1=C1/Nc2ccccc2/C1=N\O [BIO] | – |
| – | – | 1.7 °C | -0.1 °C | CN(C)Cc1cccc(N/C(=C2\C(=O)Nc3cc(C(N)=O)ccc32)c2ccccc2)c1 [BIX 02188] | – |
| 0.1 K | 4.5 K | – | – | CN(C)Cc1cccc(N/C(=C2\C(=O)Nc3cc(C(=O)N(C)C)ccc32)c2ccccc2)c1 [BIX 02189] | – |
| – | – | 0.7 °C | 1.4 °C | CCCCOc1c(C(=O)c2c(F)cc(C)cc2F)c[nH]c2nncc1-2 [BMS-265246] | – |
| – | – | 0.4 °C | 2.8 °C | Cc1ccc2nc(NCCN)c3ncc(C)n3c2c1 [BMS-345541] | – |
| – | – | – | 6.2 °C | Cc1ccc(Nc2nccc(N(C)c3ccc4c(C)n(C)nc4c3)n2)cc1S(N)(=O)=O [Pazopanib] | – |

| SMILES | TM Shift LIMK1 (K) (LIMK1KD) | TM Shift LIMK2 (K) (LIMK2KD) | ΔTm at 10 µM (LIMK1KD) | ΔTm at 10 µM (LIMK2KD) | further results |
| --- | --- | --- | --- | --- | --- |
| COc1cc(O)c2c(c1)/C=C/C[C@H](O)[C@H](O)C(=O)/C=C\C[C@H](C)OC2=O [(5Z)-7-Oxozeaenol] | 2.8 K | 0.7 K | – | – | – |
| N#CC(C#N)=Cc1ccc(O)c(O)c1 [AG-18] | 0.1 K | 0.6 K | – | – | – |
| CC(C)(C)c1cc(C=C(C#N)C#N)cc(Br)c1O [AG-1024] | 2.5 K | 4.3 K | – | – | – |
| CCN(CCO)CCCOc1ccc2c(Nc3cc(CC(=O)Nc4cccc(F)c4)[nH]n3)ncnc2c1 [AZD1152-HQPA, Barasertib] | 0.6 K | – | – | – | TM Shift LIMK1 (K) (LIMK1KD; listed as Barasertib (AZD1152-HQPA)): 0.2 K; TM Shift LIMK2 (K) (LIMK2KD; 10 µM): 0.7 K; TM Shift LIMK2 (K) (LIMK2KD; listed as Barasertib (AZD1152-HQPA), 10 µM): -0.2 K |
| CCN1CCN(C(=O)Cc2ccc(Nc3ncc(F)c(Nc4ccc(C(=O)Nc5ccccc5Cl)cc4)n3)cc2)CC1 [Aurora A Inhibitor I] | 4.9 K | 3.7 K | – | – | – |
| O=c1c(O)c(-c2ccc(O)c(O)c2)oc2cc(O)cc(O)c12 [Quercetin] | – | – | – | 3.9 °C | – |
| CNC(=O)c1cc(Oc2ccc(NC(=O)Nc3ccc(Cl)c(C(F)(F)F)c3)cc2)ccn1 [Sorafenib] | -0.7 K | – | – | – | – |
